From patent US20240415914A1, “Water Dispersible Cannabinoid Compositions” (priority 2021, published 2024)
Read-outs that look alike come from different tables or passages of the source.

Columns and labels:
[1] = format: physicochemical; conditions: stored at room temperature (21-25° C.)
Procedure: At each time period, 0.05 g of powder was dissolved in 10 ml-15 of ethanol, diluted to fall within the analytical range, and injected into the LCMSMS for analysis.

[2] = Stability of cannabinoid and Vitamin E components of Beverage 2 (AB Red) stored at 8° C. and 21-25° C., LCMSMS over 570 days
Procedure: The LCMSMS was calibrated for 0-50 ng/ml cannabinoids with the same resin material used in the preparation of the concentrates. At each time period, 100 μml of beverage was diluted with 10 ml of methanol and injected into the LCMSMS for analysis.

SMILES: CC(=O)Oc1c(C)c(C)c2c(c1C)CCC(C)(CCC[C@H](C)CCC[C@H](C)CCCC(C)C)O2 (stereo partly drawn) [α-Tocopheryl acetate]
- Stability in Powder Concentrate (content by LCMSMS) ([1]; day 0): 2.15 mg/g powder
- Stability in Powder Concentrate (content by LCMSMS) ([1]; day 1): 2.19 mg/g powder
- Stability in Powder Concentrate (content by LCMSMS) ([1]; day 2): 2.11 mg/g powder
- Stability in Powder Concentrate (content by LCMSMS) ([1]; day 3): 2.18 mg/g powder
- Stability in Powder Concentrate (content by LCMSMS) ([1]; day 5): 2.24 mg/g powder
- Stability in Powder Concentrate (content by LCMSMS) ([1]; day 8): 2.23 mg/g powder
- Stability in Powder Concentrate (content by LCMSMS) ([1]; day 9): 2.09 mg/g powder
- Stability in Powder Concentrate (content by LCMSMS) ([1]; day 10): 2.09 mg/g powder
- Stability in Powder Concentrate (content by LCMSMS) ([1]; day 11): 2.20 mg/g powder
- Stability in Powder Concentrate (content by LCMSMS) ([1]; day 12): 2.17 mg/g powder
- Stability in Powder Concentrate (content by LCMSMS) ([1]; day 15): 2.24 mg/g powder
- Stability in Powder Concentrate (content by LCMSMS) ([1]; day 16): 2.15 mg/g powder
- Stability in Powder Concentrate (content by LCMSMS) ([1]; day 17): 2.13 mg/g powder
- Stability in Powder Concentrate (content by LCMSMS) ([1]; day 18): 2.10 mg/g powder
- Stability in Powder Concentrate (content by LCMSMS) ([1]; day 19): 2.21 mg/g powder
- Stability in Powder Concentrate (content by LCMSMS) ([1]; day 22): 2.11 mg/g powder
- Stability in Powder Concentrate (content by LCMSMS) ([1]; day 23): 2.16 mg/g powder
- Stability in Powder Concentrate (content by LCMSMS) ([1]; day 24): 2.09 mg/g powder
- Stability in Powder Concentrate (content by LCMSMS) ([1]; day 25): 2.24 mg/g powder
- Stability in Powder Concentrate (content by LCMSMS) ([1]; day 26): 2.10 mg/g powder
- Stability in Powder Concentrate (content by LCMSMS) ([1]; day 29): 2.21 mg/g powder
- Stability in Powder Concentrate (content by LCMSMS) ([1]; day 30): 2.08 mg/g powder
- Stability in Powder Concentrate (content by LCMSMS) ([1]; day 60): 2.15 mg/g powder
- Stability in Powder Concentrate (content by LCMSMS) ([1]; day 90): 2.24 mg/g powder
- Stability in Powder Concentrate (content by LCMSMS) ([1]; day 120): 2.17 mg/g powder
- Stability in Powder Concentrate (content by LCMSMS) ([1]; day 150): 2.18 mg/g powder
- Stability in Powder Concentrate (content by LCMSMS) ([1]; day 180): 2.20 mg/g powder
- Stability in Powder Concentrate (content by LCMSMS) ([1]; day 210): 2.15 mg/g powder
- Stability in Powder Concentrate (content by LCMSMS) ([1]; day 240): 2.23 mg/g powder
- Stability in Powder Concentrate (content by LCMSMS) ([1]; day 270): 2.13 mg/g powder
- Stability in Powder Concentrate (content by LCMSMS) ([1]; day 300): 2.09 mg/g powder
- Stability in Powder Concentrate (content by LCMSMS) ([1]; day 330): 2.15 mg/g powder
- Stability in Powder Concentrate (content by LCMSMS) ([1]; day 360): 2.12 mg/g powder
- Stability in Powder Concentrate (content by LCMSMS) ([1]; day 390): 2.21 mg/g powder
- Stability in Powder Concentrate (content by LCMSMS) ([1]; day 420): 2.21 mg/g powder
- Stability in Powder Concentrate (content by LCMSMS) ([1]; day 450): 2.07 mg/g powder
- Stability in Powder Concentrate (content by LCMSMS) ([1]; day 480): 2.10 mg/g powder
- Stability in Powder Concentrate (content by LCMSMS) ([1]; day 510): 2.15 mg/g powder
- Stability in Powder Concentrate (content by LCMSMS) ([1]; day 540): 2.21 mg/g powder
- Stability in Powder Concentrate (content by LCMSMS) ([1]; day 570): 2.13 mg/g powder
- Stability of Vitamin Es in AB Red ([2]; 8° C., 0 days): 12.5 µg/mL
- Stability of Vitamin Es in AB Red ([2]; 8° C., 1 days): 11.6 µg/mL
- Stability of Vitamin Es in AB Red ([2]; 8° C., 2 days): 11.5 µg/mL
- Stability of Vitamin Es in AB Red ([2]; 8° C., 3 days): 11.6 µg/mL
- Stability of Vitamin Es in AB Red ([2]; 8° C., 5 days): 12.3 µg/mL
- Stability of Vitamin Es in AB Red ([2]; 8° C., 8 days): 12.2 µg/mL
- Stability of Vitamin Es in AB Red ([2]; 8° C., 9 days): 12.1 µg/mL
- Stability of Vitamin Es in AB Red ([2]; 8° C., 10 days): 12.6 µg/mL
- Stability of Vitamin Es in AB Red ([2]; 8° C., 11 days): 11.9 µg/mL
- Stability of Vitamin Es in AB Red ([2]; 8° C., 12 days): 12.4 µg/mL
- Stability of Vitamin Es in AB Red ([2]; 8° C., 15 days): 12.0 µg/mL
- Stability of Vitamin Es in AB Red ([2]; 8° C., 16 days): 11.5 µg/mL
- Stability of Vitamin Es in AB Red ([2]; 8° C., 17 days): 11.8 µg/mL
- Stability of Vitamin Es in AB Red ([2]; 8° C., 18 days): 12.5 µg/mL
- Stability of Vitamin Es in AB Red ([2]; 8° C., 19 days): 12.5 µg/mL
- Stability of Vitamin Es in AB Red ([2]; 8° C., 22 days): 12.5 µg/mL
- Stability of Vitamin Es in AB Red ([2]; 8° C., 23 days): 11.9 µg/mL
- Stability of Vitamin Es in AB Red ([2]; 8° C., 24 days): 12.6 µg/mL
- Stability of Vitamin Es in AB Red ([2]; 8° C., 25 days): 12.3 µg/mL
- Stability of Vitamin Es in AB Red ([2]; 8° C., 26 days): 11.6 µg/mL
- Stability of Vitamin Es in AB Red ([2]; 8° C., 29 days): 11.7 µg/mL
- Stability of Vitamin Es in AB Red ([2]; 8° C., 30 days): 12.1 µg/mL
- Stability of Vitamin Es in AB Red ([2]; 8° C., 60 days): 11.4 µg/mL
- Stability of Vitamin Es in AB Red ([2]; 8° C., 90 days): 11.6 µg/mL
- Stability of Vitamin Es in AB Red ([2]; 8° C., 120 days): 11.7 µg/mL
- Stability of Vitamin Es in AB Red ([2]; 8° C., 150 days): 12.3 µg/mL
- Stability of Vitamin Es in AB Red ([2]; 8° C., 180 days): 12.6 µg/mL
- Stability of Vitamin Es in AB Red ([2]; 8° C., 210 days): 11.8 µg/mL
- Stability of Vitamin Es in AB Red ([2]; 8° C., 240 days): 11.2 µg/mL
- Stability of Vitamin Es in AB Red ([2]; 8° C., 270 days): 11.6 µg/mL
- Stability of Vitamin Es in AB Red ([2]; 8° C., 300 days): 11.2 µg/mL
- Stability of Vitamin Es in AB Red ([2]; 8° C., 330 days): 11.3 µg/mL
- Stability of Vitamin Es in AB Red ([2]; 8° C., 390 days): 11.4 µg/mL
- Stability of Vitamin Es in AB Red ([2]; 8° C., 420 days): 11.2 µg/mL
- Stability of Vitamin Es in AB Red ([2]; 8° C., 450 days): 11.4 µg/mL
- Stability of Vitamin Es in AB Red ([2]; 8° C., 480 days): 10.7 µg/mL
- Stability of Vitamin Es in AB Red ([2]; 8° C., 510 days): 10.6 µg/mL
- Stability of Vitamin Es in AB Red ([2]; 8° C., 540 days): 10.8 µg/mL
- Stability of Vitamin Es in AB Red ([2]; 8° C., 570 days): 10.8 µg/mL
- Stability of Vitamin Es in AB Red ([2]; 21-25° C., 0 days): 12.5 µg/mL
- Stability of Vitamin Es in AB Red ([2]; 21-25° C., 1 days): 12.1 µg/mL
- Stability of Vitamin Es in AB Red ([2]; 21-25° C., 2 days): 12.5 µg/mL
- Stability of Vitamin Es in AB Red ([2]; 21-25° C., 3 days): 11.7 µg/mL
- Stability of Vitamin Es in AB Red ([2]; 21-25° C., 5 days): 12.2 µg/mL
- Stability of Vitamin Es in AB Red ([2]; 21-25° C., 8 days): 11.4 µg/mL
- Stability of Vitamin Es in AB Red ([2]; 21-25° C., 9 days): 11.6 µg/mL
- Stability of Vitamin Es in AB Red ([2]; 21-25° C., 10 days): 12.5 µg/mL
- Stability of Vitamin Es in AB Red ([2]; 21-25° C., 11 days): 12.3 µg/mL
- Stability of Vitamin Es in AB Red ([2]; 21-25° C., 12 days): 12.3 µg/mL
- Stability of Vitamin Es in AB Red ([2]; 21-25° C., 15 days): 12.1 µg/mL
- Stability of Vitamin Es in AB Red ([2]; 21-25° C., 16 days): 12.1 µg/mL
- Stability of Vitamin Es in AB Red ([2]; 21-25° C., 17 days): 11.3 µg/mL
- Stability of Vitamin Es in AB Red ([2]; 21-25° C., 18 days): 12.0 µg/mL
- Stability of Vitamin Es in AB Red ([2]; 21-25° C., 19 days): 12.0 µg/mL
- Stability of Vitamin Es in AB Red ([2]; 21-25° C., 22 days): 12.1 µg/mL
- Stability of Vitamin Es in AB Red ([2]; 21-25° C., 23 days): 11.7 µg/mL
- Stability of Vitamin Es in AB Red ([2]; 21-25° C., 24 days): 11.5 µg/mL
- Stability of Vitamin Es in AB Red ([2]; 21-25° C., 25 days): 12.4 µg/mL
- Stability of Vitamin Es in AB Red ([2]; 21-25° C., 26 days): 12.0 µg/mL
- Stability of Vitamin Es in AB Red ([2]; 21-25° C., 29 days): 11.9 µg/mL
- Stability of Vitamin Es in AB Red ([2]; 21-25° C., 30 days): 12.6 µg/mL
- Stability of Vitamin Es in AB Red ([2]; 21-25° C., 60 days): 11.6 µg/mL
- Stability of Vitamin Es in AB Red ([2]; 21-25° C., 90 days): 12.3 µg/mL
- Stability of Vitamin Es in AB Red ([2]; 21-25° C., 120 days): 12.3 µg/mL
- Stability of Vitamin Es in AB Red ([2]; 21-25° C., 150 days): 11.4 µg/mL
- Stability of Vitamin Es in AB Red ([2]; 21-25° C., 180 days): 12.0 µg/mL
- Stability of Vitamin Es in AB Red ([2]; 21-25° C., 210 days): 11.6 µg/mL
- Stability of Vitamin Es in AB Red ([2]; 21-25° C., 240 days): 11.3 µg/mL
- Stability of Vitamin Es in AB Red ([2]; 21-25° C., 270 days): 11.4 µg/mL
- Stability of Vitamin Es in AB Red ([2]; 21-25° C., 300 days): 11.2 µg/mL
- Stability of Vitamin Es in AB Red ([2]; 21-25° C., 330 days): 11.6 µg/mL
- Stability of Vitamin Es in AB Red ([2]; 21-25° C., 390 days): 11.3 µg/mL
- Stability of Vitamin Es in AB Red ([2]; 21-25° C., 420 days): 11.3 µg/mL
- Stability of Vitamin Es in AB Red ([2]; 21-25° C., 450 days): 11.2 µg/mL
- Stability of Vitamin Es in AB Red ([2]; 21-25° C., 480 days): 10.4 µg/mL
- Stability of Vitamin Es in AB Red ([2]; 21-25° C., 510 days): 10.4 µg/mL
- Stability of Vitamin Es in AB Red ([2]; 21-25° C., 540 days): 10.6 µg/mL
- Stability of Vitamin Es in AB Red ([2]; 21-25° C., 570 days): 10.6 µg/mL
